Reference: PubChem BioAssay AID266 (DTP/NCI, 2004)
Results filed as inconclusive are left out. Starred links: 1 amine or outer side, 2 acyl side, 3 side chain; linkers in the order of their positions; H or OH if unused. Positions of bridges follow the written chain, without caps; N, C: chain ends. Non-standard residues stand in square brackets, D forms with d. Residues, ends and D or L forms follow the SMILES beside them. Chains are numbered I, II in the order given. Actinocin(9to1) = Cc1c2oc3c(C)ccc(C(=O)[*:1])c3nc-2c(C(=O)[*:2])c(N)c1=O; aThr = C[C@H](O)[C@H](N)C(=O)O; NMeV = CN[C@H](C(=O)O)C(C)C; Sar = CNCC(=O)O

Test system: Nude mice, LX-1 lung xenograft intrarenal, tumor weight T/C
Test: NCI In Vivo Anticancer Drug Screen. Data for tumor model Human Lung LX-1 Xenograft (intrarenal inoculation) in NU/NU BALB/C (nude) mice
Details: endpoint: mean tumor weight change, higher = larger tumour
Description: The antitumor activity of compounds was measured in mice bearing transplantable tumors. Survival or tumor size were measured and the results are expressed as the measurement made in the treated group (T) divided by the measurement made in the vehicle treated control group (C). The tumor model used in this assay is Human Lung LX-1 Xenograft (intrarenal inoculation) in NU/NU BALB/C (nude) mice

[1] = dose: 100.0 mg/kg/injection, schedule: Q01DX010 (sc), vehicle: saline with Tween-80
[2] = dose: 200.0 mg/kg/injection, schedule: Q01DX010 (sc), vehicle: saline with Tween-80
[3] = dose: 400.0 mg/kg/injection, schedule: Q01DX010 (sc), vehicle: saline with Tween-80
[4] = dose: 600.0 mg/kg/injection, schedule: Q04DX003 (sc), vehicle: saline with Tween-80
[5] = dose: 1200.0 mg/kg/injection, schedule: Q04DX003 (sc), vehicle: saline with Tween-80
[6] = dose: 2400.0 mg/kg/injection, schedule: Q04DX003 (sc), vehicle: saline with Tween-80
[7] = dose: 100.0 mg/kg/injection, schedule: Q04DX003 (sc), vehicle: saline with Tween-80

Structure (SMILES): COC1=C(OC)C(=O)C(C/C=C(\C)CC/C=C(\C)CC/C=C(\C)CC/C=C(\C)CC/C=C(\C)CC/C=C(\C)CC/C=C(\C)CC/C=C(\C)CC/C=C(\C)CCC=C(C)C)=C(C)C1=O
- T/C (dose: 50.0 mg/kg/injection, schedule: Q01DX010 (sc), vehicle: saline with Tween-80): 91 % of control
- T/C [1]: 90 % of control
- T/C [2]: 102 % of control
- T/C [3]: 104 % of control

Structure (SMILES): COc1cccc2c1C(=O)c1c(O)c3c(c(O)c1C2=O)C[C@@](O)(C(=O)CO)C[C@@H]3OC1CC(OC(C)=O)C(OC(C)=O)C(C)O1 (stereo partly specified)
- T/C (dose: 25.0 mg/kg/injection, schedule: Q01DX010 (sc), vehicle: distilled water + Tween-80): 53 % of control

Structure (SMILES): CC[C@@]1(O)C[C@H](OC2CC(N(C)C)C(OC3CC(O)C(OC4CCC(=O)C(C)O4)C(C)O3)C(C)O2)c2c(cc3c(c2O)C(=O)c2c(O)cccc2C3=O)[C@H]1C(=O)OC (stereo partly specified)
- T/C (dose: 1.0 mg/kg/injection, schedule: Q01DX010 (sc), vehicle: water): 36 % of control
- T/C (dose: 1.66 mg/kg/injection, schedule: Q04DX003 (sc), vehicle: water): 63 % of control
- T/C (dose: 2.0 mg/kg/injection, schedule: Q01DX010 (sc), vehicle: water): 6 % of control
- T/C (dose: 3.33 mg/kg/injection, schedule: Q04DX003 (sc), vehicle: water): 60 % of control
- T/C (dose: 6.65 mg/kg/injection, schedule: Q04DX003 (sc), vehicle: water): 18 % of control

Structure (SMILES): COc1cc2cc(c1Cl)N(C)C(=O)C[C@H](OC(=O)[C@H](C)N(C)C(C)=O)[C@]1(C)O[C@H]1[C@H](C)[C@@H]1C[C@@](O)(NC(=O)O1)[C@H](OC)C=C/C=C(\C)C2
- T/C (dose: 50.0 mg/kg/injection, schedule: Q01DX010 (sc), vehicle: Klucel (hydroxypropylcellulose) (HPC)): 72 % of control
- T/C (dose: 100.0 mg/kg/injection, schedule: Q01DX010 (sc), vehicle: Klucel (hydroxypropylcellulose) (HPC)): 3 % of control
- T/C (dose: 200.0 mg/kg/injection, schedule: Q01DX010 (sc), vehicle: Klucel (hydroxypropylcellulose) (HPC)): 1 % of control
- T/C (dose: 12.5 micrograms/kg/injection, schedule: Q01DX010 (sc), vehicle: Klucel (hydroxypropylcellulose) (HPC)): 224 % of control
- T/C (dose: 25.0 micrograms/kg/injection, schedule: Q01DX010 (sc), vehicle: Klucel (hydroxypropylcellulose) (HPC)): 77 % of control
- T/C (dose: 50.0 micrograms/kg/injection, schedule: Q01DX010 (sc), vehicle: Klucel (hydroxypropylcellulose) (HPC)): 73 % of control
- T/C (dose: 100.0 micrograms/kg/injection, schedule: Q01DX010 (sc), vehicle: Klucel (hydroxypropylcellulose) (HPC)): 32 % of control
- T/C (dose: 200.0 micrograms/kg/injection, schedule: Q01DX010 (sc), vehicle: Klucel (hydroxypropylcellulose) (HPC)): 2 % of control

Structure (SMILES): Oc1cc2ccccc2c(-c2c(O)c(O)cc3ccccc23)c1O
- T/C [4]: 122 % of control
- T/C [5]: 95 % of control
- T/C [6]: 84 % of control

Structure (SMILES): O=C(Nc1cc(Cl)ccc1C(=O)O)c1cccc(C[n+]2ccccc2)c1
- T/C (dose: 150.0 mg/kg/injection, schedule: Q04DX003 (ip), vehicle: saline with Tween-80): 67 % of control
- T/C (dose: 300.0 mg/kg/injection, schedule: Q04DX003 (ip), vehicle: saline with Tween-80): 100 % of control

Structure (SMILES): CC1CCC(NC(=O)N(CCCl)N=O)CC1 (stereo unspecified)
- T/C (dose: 3.13 mg/kg/injection, schedule: Q01DX010 (sc), vehicle: Klucel (hydroxypropylcellulose) (HPC)): 67 % of control
- T/C (dose: 6.25 mg/kg/injection, schedule: Q01DX010 (sc), vehicle: Klucel (hydroxypropylcellulose) (HPC)): 3 % of control

Structure (SMILES): CCCC(=O)Oc1ccc(/C=N/NC(N)=S)nc1
- T/C [1]: 66 % of control
- T/C [2]: 42 % of control
- T/C [3]: 19 % of control

Structure (SMILES): O=S(=O)(CCl)OCCCl
- T/C (dose: 50.0 mg/kg/injection, schedule: Q04DX003 (sc), vehicle: saline with Tween-80): 122 % of control
- T/C [7]: 101 % of control

Structure (SMILES): COC(=O)Nc1cn2cc(C(=O)c3cccs3)ccc2n1
- T/C (dose: 300.0 mg/kg/injection, schedule: Q04DX003 (sc), vehicle: Klucel (hydroxypropylcellulose) (HPC)): 94 % of control
- T/C (dose: 600.0 mg/kg/injection, schedule: Q04DX003 (sc), vehicle: Klucel (hydroxypropylcellulose) (HPC)): 96 % of control
- T/C (dose: 1200.0 mg/kg/injection, schedule: Q04DX003 (sc), vehicle: Klucel (hydroxypropylcellulose) (HPC)): 54 % of control
- T/C (dose: 2400.0 mg/kg/injection, schedule: Q04DX003 (sc), vehicle: Klucel (hydroxypropylcellulose) (HPC)): 99 % of control

Structure (SMILES): NC(CCC(=O)NC(CS)C(=O)NCC(=O)O)C(=O)O (stereo unspecified)
- T/C (dose: 300.0 mg/kg/injection, schedule: Q04DX003 (sc), vehicle: saline): 97 % of control
- T/C (dose: 600.0 mg/kg/injection, schedule: Q04DX003 (sc), vehicle: saline): 69 % of control
- T/C (dose: 1200.0 mg/kg/injection, schedule: Q04DX003 (sc), vehicle: saline): 74 % of control
- T/C (dose: 2400.0 mg/kg/injection, schedule: Q04DX003 (sc), vehicle: saline): 121 % of control

Structure (SMILES): Nc1nnc[se]1
- T/C [7]: 82 % of control
- T/C (dose: 200.0 mg/kg/injection, schedule: Q04DX003 (sc), vehicle: saline with Tween-80): 40 % of control
- T/C (dose: 400.0 mg/kg/injection, schedule: Q04DX003 (sc), vehicle: saline with Tween-80): 30 % of control

Structure (SMILES): Cc1c2oc3c(C)ccc(C(=O)N[C@@H]4C(=O)N[C@H](C(C)C)C(=O)N5CCC[C@H]5C(=O)N(C)CC(=O)N(C)[C@@H](C(C)C)C(=O)O[C@H]4C)c3nc-2c(C(=O)N[C@@H]2C(=O)N[C@H](C(C)C)C(=O)N3CCC[C@H]3C(=O)N(C)CC(=O)N(C)[C@@H](C(C)C)C(=O)O[C@H]2C)c(N)c1=O (I: [aThr][dV]P[Sar][NMeV] / II: [aThr][dV]P[Sar][NMeV]; ester I:1-I:C, II:1-II:C; linker I:N-II:N via Actinocin(9to1))
- T/C (dose: 50.0 micrograms/kg/injection, schedule: Q01DX010 (sc), vehicle: saline): 35 % of control
- T/C (dose: 100.0 micrograms/kg/injection, schedule: Q01DX010 (sc), vehicle: saline): 11 % of control

Structure (SMILES): O=S(CCCl)CCCl
- T/C (dose: 25.0 mg/kg/injection, schedule: Q04DX003 (sc), vehicle: Klucel (hydroxypropylcellulose) (HPC)): 81 % of control
- T/C (dose: 50.0 mg/kg/injection, schedule: Q04DX003 (sc), vehicle: Klucel (hydroxypropylcellulose) (HPC)): 76 % of control

Structure (SMILES): CNC(=O)O/N=C(\CN=[N+]=[N-])C(C)(C)C
- T/C (dose: 1.25 mg/kg/injection, schedule: Q04DX003 (sc), vehicle: saline): 73 % of control

Structure (SMILES): O=P1(N(CCCl)CCCl)NCCCO1 (stereo unspecified)
- T/C (dose: 25.0 mg/kg/injection, schedule: Q04DX003 (ip), vehicle: saline): 101 % of control
- T/C (dose: 50.0 mg/kg/injection, schedule: Q04DX003 (ip), vehicle: saline): 92 % of control
- T/C (dose: 100.0 mg/kg/injection, schedule: Q04DX003 (ip), vehicle: saline): 77 % of control
- T/C (dose: 200.0 mg/kg/injection, schedule: Q04DX003 (ip), vehicle: saline): 50 % of control

Structure (SMILES): Nc1nc(Br)nc2c1ncn2C1CC(O)C(CO)O1 (stereo unspecified)
- T/C (dose: 7.5 mg/kg/injection, schedule: Q03DX003 (ip), vehicle: saline): 66 % of control
- T/C (dose: 15.0 mg/kg/injection, schedule: Q03DX003 (ip), vehicle: saline): 77 % of control
- T/C (dose: 30.0 mg/kg/injection, schedule: Q03DX003 (ip), vehicle: saline): 72 % of control
- T/C (dose: 60.0 mg/kg/injection, schedule: Q03DX003 (ip), vehicle: saline): 59 % of control
- T/C (dose: 120.0 mg/kg/injection, schedule: Q03DX003 (ip), vehicle: saline): 74 % of control

Structure (SMILES): COc1cccc2c1C(=O)c1c(O)c3c(c(O)c1C2=O)CC(O)(/C(C)=N/NC(=O)CCC(=O)N/N=C(\C)C1(O)Cc2c(O)c4c(c(O)c2C(OC2CC(N)C(O)C(C)O2)C1)C(=O)c1c(OC)cccc1C4=O)CC3OC1CC(N)C(O)C(C)O1 (stereo unspecified)
- T/C (dose: 6.25 mg/kg/injection, schedule: Q01DX010 (sc), vehicle: water): 65 % of control
- T/C (dose: 12.5 mg/kg/injection, schedule: Q01DX010 (sc), vehicle: water): 23 % of control

Structure (SMILES): C=CC(C)NC(=S)NNC(=S)NC (stereo unspecified)
- T/C (dose: 300.0 mg/kg/injection, schedule: Q04DX003 (sc), vehicle: saline + alcohol): 115 % of control
- T/C (dose: 600.0 mg/kg/injection, schedule: Q04DX003 (sc), vehicle: saline + alcohol): 87 % of control
- T/C (dose: 1200.0 mg/kg/injection, schedule: Q04DX003 (sc), vehicle: saline + alcohol): 87 % of control
- T/C (dose: 2400.0 mg/kg/injection, schedule: Q04DX003 (sc), vehicle: saline + alcohol): 78 % of control

Structure (SMILES): CC(=O)NC(Cc1ccc(F)cc1)C(=O)O (stereo unspecified)
- T/C (dose: 300.0 mg/kg/injection, schedule: Q04DX003 (sc), vehicle: saline with Tween-80): 112 % of control
- T/C [4]: 71 % of control
- T/C [5]: 91 % of control
- T/C [6]: 107 % of control

Structure (SMILES): Nc1ccn([C@@H](C=O)O[C@@H](C=O)CO)c(=O)n1
- T/C (dose: 200.0 mg/kg/injection, schedule: Q04DX003 (sc), vehicle: saline): 108 % of control
